Counter-ions that a name gives are not always drawn.
Tests used:
[1] = tested on: T1, α-1-Acid glycoprotein (AGP, orosomucoid); experiment: intrinsic protein fluorescence quenching, Klotz plot; assay type: binding, Homo sapiens; details: λex 295 nm (Trp); pH 7.4, 0.05 M phosphate, 298 K; unit misprinted in table, L/mol by b49
T1 construct: gene ORM1
Excerpt: intrinsic protein fluorescence quenching, Klotz plot on α-1-Acid glycoprotein (AGP, orosomucoid)

[2] = target: T2, Human serum albumin (HSA) (Homo sapiens, UniProt P02768); experiment: as above; assay type: binding; details: λex 295 nm (Trp); pH 7.4, 0.05 M phosphate, 298 K; unit misprinted in table, L/mol by b49
T2 construct: gene ALB
Excerpt: intrinsic protein fluorescence quenching, Klotz plot on Human serum albumin (HSA)

T2 sequence (P02768 25-609): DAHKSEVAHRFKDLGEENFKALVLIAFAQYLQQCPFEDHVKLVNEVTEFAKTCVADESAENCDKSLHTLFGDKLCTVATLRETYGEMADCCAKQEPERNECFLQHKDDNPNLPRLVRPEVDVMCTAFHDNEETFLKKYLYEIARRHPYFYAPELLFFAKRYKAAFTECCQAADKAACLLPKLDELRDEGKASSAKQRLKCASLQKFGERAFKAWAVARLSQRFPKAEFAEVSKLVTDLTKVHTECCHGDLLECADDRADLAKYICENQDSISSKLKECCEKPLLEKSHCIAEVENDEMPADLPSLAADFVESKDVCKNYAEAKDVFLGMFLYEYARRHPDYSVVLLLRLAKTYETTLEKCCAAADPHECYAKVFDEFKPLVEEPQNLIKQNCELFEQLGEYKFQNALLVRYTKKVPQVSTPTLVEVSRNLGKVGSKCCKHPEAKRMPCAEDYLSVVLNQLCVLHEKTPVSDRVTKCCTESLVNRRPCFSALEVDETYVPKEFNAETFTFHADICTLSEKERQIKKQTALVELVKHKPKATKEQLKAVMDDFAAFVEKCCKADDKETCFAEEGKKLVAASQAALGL

λex 295 nm / (Ka. 10^4) ±SD * (mol.L^-1) [2]: 2.71 ± 0.01 ·10^4
SMILES: C[n+]1cc2c(c3ccccc31)Nc1ccccc1S2 [Salt1, 5-methyl-12(H)-chino[3,4-b][1,4]benzothiazinium chloride]
λex 295 nm / (Ka. 10^4) ±SD * (mol.L^-1) [1]: 7.86 ± 0.03 ·10^4
